# Source: patent US20190203253A1, “METHODS OF IDENTIFYING AND TREATING CANCER PATIENTS WITH AN EPHB6 DEFICIENCY” (University of Saskatchewan, priority 2016, published 2019)
# What was measured:
# Format in all cases: cell-based, human
# [1] = tested on: MDA-pc3 and MDA-B6 cells (MDA-MB-231); experiment: Drug sensitivity assay (resazurin), SRC inhibitors, MDA-MB-231-derived cells; conditions: MDA-pc3 vs MDA-B6, increasing concentrations, 72 h, resazurin (FIG. 4A, 4B)
# Procedure: FIG. 4. […] C. […] All experiments were performed at least three times.
# [2] = tested on: BT-20 cells (EPHB6-targeting shRNA vs non-silencing shRNA); experiment: Drug sensitivity assay (resazurin), SRC inhibitors, BT-20 cells with silenced EPHB6; conditions: BT-20 with EPHB6-targeting shRNA vs non-silencing shRNA, 96 h (FIGS. 6A-6E)
# Procedure: FIG. 6. SL relation between EPHB6 and SRC in BT-20 TNBC cells. A. Triple negative breast cancer cells, BT-20, were transduced with EPHB6-targeting shRNA (BT20-66-shRNA), or non-silencing shRNA (BT2O-NS). EPHB6 expression was analyzed by Western blotting with anti-EPHB6. Western blotting with anti-tubulin was used as a loading control. B. BT20-66-shRNA and BT2O-NS cells were cultured in 96-well plates with indicated concentrations of SU6656 or matching volumes of DMSO for 96 h. Cells were stained with resazurin and fluorescence was measured using a SpectraMax M5 plate reader to determine cell suppression. Five wells were analyzed per condition. […] C. […] Cells were stained with resazurin and fluorescence was measured using a SpectraMax M5 plate reader to determine cell suppression. Five wells were analyzed per condition. […] PI-stained cells were counted in at least 10 randomly captured frames. […] Stained cells were analyzed by flow cytometry and the FlowJo software. […]
# MDA-MB-231 and BT-20 cell monolayers were incubated in 96-well plates for 72 h and 96 h, respectively, with indicated concentrations of KX2-391 or SU6656, or matching volumes of DMSO as a solvent control. Treated cells were stained using resazurin by following the manufacturer's instructions and fluorescence was measured using a SpectraMax M5 microplate reader.
# MDA-pc3 and MDA-B6 cells = experiment: Cell death assays (propidium iodide and 7-AAD staining); conditions: MDA-pc3 vs MDA-B6, 25 nM, 72 h (FIGS. 5A, 5B)
# Procedure: FIG. 5. Inhibition of SRC induces cell death more efficiently in EPHB6-deficient cells. A. MDA-pc3, and MDA-B6 cells were cultured in glass-bottom plates in the presence of 25 nM KX2-391 or DMSO for 72 h and stained with 2.7 μg/mL propidium iodide (PI) in phenol red-free medium. Stained cells were imaged at 200× magnification using Zeiss LSM 700 confocal microscope and PI-stained cells were counted in at least 10 randomly captured frames. Counts of PI-positive cells were normalized on the total cell numbers in matching frames. […] B. MDA-pc3 and MDA-B6 cells were cultured in 6-well plates in the presence of 25 nM KX2-391 or a matching volume of DMSO for 72 h. Cells were collected and stained for 7-AAD for 15 minutes at room temperature. Cells were analyzed by flow cytometry and the FlowJo software. […] All experiments were performed at least three times. Scale bar, 100 μm. *, P<0.05, Student's t-test.
# For propidium iodide (PI) staining, MDA-MB-231 and BT-20 cells were incubated in glass-bottom plates (MatTek, Ashland, Mass., USA) for 72 h and 96 h, respectively, with KX2-391 and matching volumes of DMSO. […] The amount of PI-stained cells was analyzed by microscopy using a Zeiss Observer Z1 at 200× magnification. […] PI-stained cells were counted in at least 10 randomly captured frames, normalized on the total number of cells in matching frames and compared between DMSO controls and treated cells. […]
smiles,measurement,setting,value
O=C(Cc1ccc(-c2ccc(OCCN3CCOCC3)cc2)cn1)NCc1ccccc1 [KX2-391],"cell suppression relative to DMSO control, EPHB6-deficient vs EPHB6-expressing cells",[1],significantly stronger suppression of EPHB6-deficent cells
same,cell suppression after silencing of EPHB6 expression,[2],strongly increased their suppression
same,induction of cell death (Propidium Iodide or 7-AAD staining),MDA-pc3 and MDA-B6 cells,"more efficient in inducing cell death, when the EPHB6 receptor is not expressed"
